16 compounds from patent publication US20040248953A1, “3-Arylsulfanyl and 3-heteroarylsulfanyl substituted benzo[b]thiophenes as therapeutic agents” (priority 2003, published 2004) can be followed below.

For this assay, the target named is T1, PI3Kγ (Homo sapiens, UniProt P48736).
T1 construct: HA; made in house; host or cells: Spodoptera frugiperda (Sf9) cells, baculovirus coinfection
T1 sequence (P48736 whole entry, species assumed): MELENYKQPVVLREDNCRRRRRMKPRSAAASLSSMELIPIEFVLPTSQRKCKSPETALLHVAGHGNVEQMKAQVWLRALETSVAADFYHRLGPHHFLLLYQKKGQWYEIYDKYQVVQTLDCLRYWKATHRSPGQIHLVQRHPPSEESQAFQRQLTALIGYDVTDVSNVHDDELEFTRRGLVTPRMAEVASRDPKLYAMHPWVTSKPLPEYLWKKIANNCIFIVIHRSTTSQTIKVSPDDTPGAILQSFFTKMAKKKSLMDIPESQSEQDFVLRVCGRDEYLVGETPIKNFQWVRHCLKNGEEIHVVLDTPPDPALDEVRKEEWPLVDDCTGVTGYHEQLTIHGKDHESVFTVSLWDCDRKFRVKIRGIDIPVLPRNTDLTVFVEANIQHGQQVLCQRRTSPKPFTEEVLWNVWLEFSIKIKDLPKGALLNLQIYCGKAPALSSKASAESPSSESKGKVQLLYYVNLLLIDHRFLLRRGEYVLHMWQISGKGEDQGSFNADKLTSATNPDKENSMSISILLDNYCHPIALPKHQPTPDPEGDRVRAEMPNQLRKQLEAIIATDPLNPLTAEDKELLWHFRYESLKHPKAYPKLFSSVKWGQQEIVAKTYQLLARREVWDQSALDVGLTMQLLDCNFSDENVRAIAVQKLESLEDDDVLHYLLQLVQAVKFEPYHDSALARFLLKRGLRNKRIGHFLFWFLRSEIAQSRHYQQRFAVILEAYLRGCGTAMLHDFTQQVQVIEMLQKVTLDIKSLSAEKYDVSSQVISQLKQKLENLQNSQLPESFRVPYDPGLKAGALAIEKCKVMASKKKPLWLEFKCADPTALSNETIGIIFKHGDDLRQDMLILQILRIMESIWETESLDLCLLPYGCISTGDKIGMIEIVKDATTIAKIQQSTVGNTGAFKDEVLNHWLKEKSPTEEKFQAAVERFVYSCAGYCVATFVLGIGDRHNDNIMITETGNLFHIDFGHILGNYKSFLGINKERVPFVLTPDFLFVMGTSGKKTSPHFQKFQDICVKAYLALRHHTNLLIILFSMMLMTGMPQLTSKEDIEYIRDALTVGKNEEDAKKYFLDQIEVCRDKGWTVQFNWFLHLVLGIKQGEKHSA
T1 sequence (Q8WYR1 whole entry partner, species assumed): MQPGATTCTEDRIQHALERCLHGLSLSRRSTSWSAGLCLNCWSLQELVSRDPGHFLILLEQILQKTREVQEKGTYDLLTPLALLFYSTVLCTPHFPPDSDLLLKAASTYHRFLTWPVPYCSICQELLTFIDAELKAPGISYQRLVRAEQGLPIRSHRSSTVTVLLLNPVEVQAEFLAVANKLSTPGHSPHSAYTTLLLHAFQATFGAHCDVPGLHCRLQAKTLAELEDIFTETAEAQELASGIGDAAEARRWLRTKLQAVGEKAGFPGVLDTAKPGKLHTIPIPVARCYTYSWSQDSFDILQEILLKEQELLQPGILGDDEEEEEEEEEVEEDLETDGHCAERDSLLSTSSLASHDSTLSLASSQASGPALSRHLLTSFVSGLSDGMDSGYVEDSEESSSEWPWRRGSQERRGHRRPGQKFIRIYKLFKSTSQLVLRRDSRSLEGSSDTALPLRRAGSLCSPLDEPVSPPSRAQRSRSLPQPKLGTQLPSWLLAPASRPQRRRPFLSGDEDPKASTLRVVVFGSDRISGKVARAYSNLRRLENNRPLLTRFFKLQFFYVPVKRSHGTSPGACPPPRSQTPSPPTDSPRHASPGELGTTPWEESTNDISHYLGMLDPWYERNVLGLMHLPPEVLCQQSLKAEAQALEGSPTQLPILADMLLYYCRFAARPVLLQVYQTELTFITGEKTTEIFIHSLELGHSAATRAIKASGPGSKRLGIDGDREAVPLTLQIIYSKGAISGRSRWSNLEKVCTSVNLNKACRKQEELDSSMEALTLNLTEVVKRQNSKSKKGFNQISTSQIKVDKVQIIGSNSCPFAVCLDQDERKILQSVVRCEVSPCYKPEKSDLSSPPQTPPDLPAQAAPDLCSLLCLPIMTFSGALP
The experiment in a line: PI3Kγ in vitro kinase assay (32P-ATP, PIP2 lipid micelles, filter plate). Format: biochemical. The note with it: purified recombinant p101/p110γ protein with G protein β1/γ2 subunits; 20 μM ATP; 25 μM PIP2; 20 minutes at room temperature. Here is the method: Spodtera frugiperda cells, grown in ESF921 media, were coinfected with baculovirus expressing a glu-tagged p101 and baculovirus expressing an HA-tagged p110γ, at a 3:1 ratio of p101 baculovirus to p110γ baculovirus. Sf9 cells were grown to 1×10^7 total cells/mL in 10 L bioreactors and harvested 48-72 hours post infection. Samples of infected cells were then tested for expression of p101/p110γ PI3 kinase by immunoprecipitation and Western Blot analysis methods (see below). To purify PI3Kγ, 4 volumes of room temperature hypotonic lysis buffer (1 mM MgCl2, 1 mM DTT, 5 mM EGTA, 1 mM Pefabloc, 0.5 μM aprotinin, 5 μM leupeptin, 2 μM pepstatin, 5 μM E64, pH 8) per gram of cell paste, was poured onto frozen cell pellets with stirring, then lysed in a nitrogen “bomb” at 400 psi (599HC […], Parr Instrument Co, Moline, Ill.). NaCl was added to 150 mM, and sodium cholate was added to 1% and mixed for another 45 minutes. The lysates were clarified by centrifugation for 25 minutes at 14,000 rpm. The lysates were then loaded over anti-glu-linked Protein-G Sepaharose beads (Covance Research Products, Richmond, Calif.) using 20 mL resin/50 g cell paste. The column was washed with 15 volumes of wash buffer (1 mM DTT, 0.2 mM EGTA, 1 mM Pefabloc, 0.5 μM aprotinin, 5 μM leupeptin, 2 μM pepstatin, 5 μM E64, 150 mM NaCl, 1% sodium cholate, pH 8). PI3Kγ was eluted with 6 column volumes of wash buffer that contain 100 μg/mL of a peptide that competes for binding of the glu tag. The column fractions with the eluted protein (determined by taking OD280 readings) were collected and dialyzed in 0.2 mM EGTA, 1 mM DTT, 1 mM Pefabloc, 5 μM leupeptin, 0.5% sodium cholate, 150 mM NaCl, and 50% glycerol, pH 8. The fractions were stored at -80° C. until further use. Spodtera frugiperda cells were coinfected with baculovirus expressing a glu-tagged G protein β1 and baculovirus expressing a […], at a 1:1 ratio of glu-tagged G protein β1 baculovirus to G protein β2 baculovirus. Sf9 cells are grown in 10 L bioreactors and harvested 48-72 hours post infection. Samples of infected cells were tested for G protein β1/β2 expression by Western Blot analysis, as described below. Cell lysates were homogenized and loaded onto a column of glu-tagged beads as in Biological Example 1 and competed off the column with a glu peptide and processed as described in Biological Example 1. The inhibitory properties of the compounds in Table 1 were assayed in an in vitro PI3K assay. In a 96-well polypropylene plate, each well was spotted with […] of 50 times the desired final concentration of compound in DMSO. Purified recombinant p101/p110γ protein (0.03 μg; 2.7 nM) and G protein β1/γ2 subunits (0.09 μg; 57.7 nM) for each reaction was combined in the assay buffer (30 mM HEPES, 100 mM NaCl, 1 mM EGTA, and 1 mM DTT). ATP and [γ-^32P-ATP] (0.09 μCi) were added to this mixture so that the final ATP concentration in the reaction was 20 μM. Lipid micelles were formed by sonicating phosphatidylinositol4,5-diphosphate (PIP2), phosphatidylethanolamine (PE), and Na-cholate in the assay buffer for 10 minutes, adding MgCl2 and incubating on ice for 20 minutes, for final concentrations of 25 μM PIP2, 300 μM PE, 0.02% Na-cholate, and 10 mM MgCl2 in the reaction. The reactions were started by adding equal volumes lipid and enzyme mixture in a total volume of 50 μL, allowed to run for 20 minutes at room temperature, and stopped with 100 μL 75 mM H3PO4. The lipid product was transferred to a glass fiber filter plate and washed with 75 mM H3PO4 several times. The presence of radioactive lipid product (PIP3) was measured by adding Wallac Optiphase mix to each well and counting in a Wallac 1450 Trilux plate reader (PerkinElmer Life Sciences Inc., Boston, Mass. 02118). The IC50 for each compound tested is reported in μM in Table 1: […]
Regarding “3-(2,3-dichloro-phenylsulfanyl)-5-methoxy-benzo[b]thiophene-2-carboxylic acid(1H-tetrazol-5-yl)-amide [Example 25]”, the IC50 came to 3450 nM.

As to “3-(3-Chloro-phenylsulfanyl)-5-methoxy-6-methyl-benzo[b]thiophene-2-carboxylic acid(1H-tetrazol-5-yl)-amide [Example 33]”, the IC50 worked out at 170 nM.

Take “3-[2-(Acetyl-methyl-amino)-1-phenyl-propylsulfanyl]-6-methoxy-5-methyl-benzo[b]thiophene-2-carboxylic acid(1H-tetrazol-5-yl)-amide [Example 43]”: the half-maximal inhibitory concentration (IC50) worked out at 215 nM.

Regarding “5,6-dimethoxy-3-phenethylsulfanyl-benzo[b]thiophene-2-carboxylic acid(1H-tetrazol-5-yl)-amide [Example 13]”, the 50% inhibitory concentration (IC50) was 522 nM.

For the compound “5-Ethoxy-3-phenethylsulfanyl-benzo[b]thiophene-2-carboxylic acid(1H-tetrazol-5-yl)-amide [Example 52]”, the IC50 was found to be 2850 nM.

“5-methoxy-3-(2-methyl-furan-3-ylsulfanyl)-benzo[b]thiophene-2-carboxylic acid(1H-tetrazol-5-yl)-amide [Example 16]”: the half-inhibitory concentration (IC50) came to 2210 nM.

With `COc1cc2sc(C(=O)Nc3nnn[nH]3)c(Sc3ccccc3)c2cc1OC` [Example 1, 5,6-Dimethoxy-3-phenylsulfanyl-benzo[b]thiophene-2-carboxylic acid(1H-tetrazol-5-yl)-amide], the concentration for half-maximal inhibition (IC50) came to 60 nM.

Regarding `COc1cc2c(Sc3ccccc3)c(C(=O)Nc3nnn[nH]3)sc2cc1C` [Example 2, 5-Methoxy-6-methyl-3-phenylsulfanyl-benzo[b]thiophene-2-carboxylic acid(1H-tetrazol-5-yl)-amide], the IC50 worked out at 177 nM.

`CCOc1ccc2sc(C(=O)Nc3nnn[nH]3)c(Sc3ccccc3)c2c1` [Example 3, 5-Ethoxy-3-phenylsulfanyl-benzo[b]thiophene-2-carboxylic acid (1H-tetrazol-5-yl)-amide]: the IC50 worked out at 253 nM.

`COc1ccc2sc(C(=O)Nc3nnn[nH]3)c(Sc3ccc(O)cc3)c2c1` [Example 4, 3-(4-hydroxy-phenylsulfanyl)-5-methoxy-benzo[b]thiophene-2-carboxylic acid(1H-tetrazol-5-yl)-amide]: the IC50 was 2770 nM.

Turning to `COc1cc2sc(C(=O)Nc3nnn[nH]3)c(Sc3ccccc3C)c2cc1OC` [Example 5, 5,6-dimethoxy-3-o-tolysulfanyl-benzo[b]thiophene-2-carboxylic acid(1H-tetrazol-5-yl)-amide], the half-maximal inhibitory concentration (IC50) amounted to 1270 nM.

In the case of `CCc1ccccc1Sc1c(C(=O)Nc2nnn[nH]2)sc2cc(OC)c(OC)cc12` [Example 6, 3-(2-ethyl-phenylsulfanyl)-5,6-dimethoxy-benzo[b]thiophene-2-carboxylic acid(1H-tetrazol-5-yl)-amide], the IC50 was 1170 nM.

On to `COc1cc2sc(C(=O)Nc3nnn[nH]3)c(Sc3cccc(Cl)c3)c2cc1OC` [Example 7, 3-(3-chloro-phenylsulfanyl)-5,6-dimethoxy-benzo[b]thiophene-2-carboxylic acid(1H-tetrazol-5-yl)-amide], for which the IC50 came to 1990 nM.

With `COc1cc2sc(C(=O)Nc3nnn[nH]3)c(Sc3ccc(Cl)cc3)c2cc1OC` [Example 8, 3-(4-chloro-phenylsulfanyl)-5,6-dimethoxy-benzo[b]thiophene-2-carboxylic acid(1H-tetrazol-5-yl)-amide], the 50% inhibitory concentration (IC50) stood at 3720 nM.

For `COc1cc2sc(C(=O)Nc3nnn[nH]3)c(Sc3ccc(C)cc3C)c2cc1OC` [Example 9, 3-(2,4-dimethyl-phenylsulfanyl)-5,6-dimethoxy-benzo[b]thiophene-2-carboxylic acid(1H-tetrazol-5-yl)-amide], the concentration for half-maximal inhibition (IC50) worked out at 2800 nM.

For `COc1cc2sc(C(=O)Nc3nnn[nH]3)c(Sc3cccc(Cl)c3Cl)c2cc1OC` [Example 10, 3-(2,3-dichloro-phenylsulfanyl)-5,6-dimethoxy-benzo[b]thiophene-2-carboxylic acid(1H-tetrazol-5-yl)-amide], the IC50 was 1130 nM.
